Data as given in PMC9524151, “Peptides derived from hookworm anti-inflammatory proteins suppress inducible colitis in mice and inflammatory cytokine production by human cells” (Frontiers in Medicine, 2022).
Ends that are not written are not given here.

Key:
TNBS-induced colitis = experiment: TNBS colitis model, oral administration; conditions: oral 5 mg/kg; compared with vehicle treated mice
in vitro = conditions: male, human, human serum
[1] = 100% human serum, 37°C, RP-HPLC at 214 nm, triplicate; for relative rate of degradation in human serum over 24 h: 0, 3, 8, 24 h

Row | Molecule | remaining at 4 h, 20 μM (in vitro) | relative rate of degradation in human serum over 24 h [1] | other results
1 | O=C(O)c1cc(/N=N/c2ccc(S(=O)(=O)Nc3ccccn3)cc2)ccc1O [sulfasalazine] | – | – | colon length after oral administration (TNBS-induced colitis): Neither ES2-10 nor sulfasalazine were distinct from the vehicle treated mice
2 | PSKEKADLGKYKA [AIP1-13] | < 10% | – | –
3 | TPEEHDLLMDLMGDPKKAEE [AIP2-20] | – | degraded slower than AIP1-13 and ES2-10 | remaining at 8 h, 20 μM (in vitro): > 50%; detection of peptide in human serum after 24 h [1]: could still be detected after 24 h
4 | SQKEKDLLKE [ES2-10] | < 10% | – | –
5 | TPEEHPLLMDLMGDPKKAEE [AIP2-20D6P] | – | degraded slower than AIP1-13 and ES2-10 but was less stable than AIP2-20 | –
